Source: ChEMBL document CHEMBL1201862, “PubChem BioAssay data set” (2004)
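Following 48 hours of exposure in 96-well plates, responses at five concentrations were used to interpolate endpoints linearly. Here, GI50 denotes the concentration required for 50% inhibition of growth.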 The source made the active and inactive calls. No stated cut-off is given here; in the data, active = GI50 up to about 1.1 µM and inactive = higher.

Tests used:
Assay in all cases: NCI tumour cell line growth inhibition, 48 h
[1] = test system: CAKI-1
[2] = test system: A549
[3] = test system: OVCAR-8
[4] = test system: COLO 205
[5] = test system: SK-MEL-2
[6] = test system: NCI-H226
[7] = test system: SNB-75
[8] = test system: OVCAR-5
[9] = test system: PC-3
[10] = test system: SF-268
[11] = test system: Malme-3M
[12] = test system: UO-31
[13] = test system: MDA-MB-231
[14] = test system: SF-539
[15] = test system: SW-620
[16] = test system: TK-10
[17] = test system: IGROV-1
[18] = test system: CCRF-CEM
[19] = test system: SK-MEL-28
[20] = test system: ACHN

NC(=O)/C(=C\c1ccncc1)c1cccc2ccccc12
GI50 [1]: > 100 µM (inactive)
GI50 [2]: > 100 µM (inactive)
GI50 [3]: > 100 µM (inactive)
GI50 [4]: 50.5 µM (inactive)
GI50 [5]: > 100 µM (inactive)
GI50 [6]: 38 µM (inactive)
GI50 [7]: > 100 µM (inactive)
GI50 [8]: > 100 µM (inactive)
GI50 [9]: > 100 µM (inactive)
GI50 [10]: > 100 µM (inactive)
GI50 [11]: > 100 µM (inactive)
GI50 [12]: > 100 µM (inactive)
GI50 [13]: > 100 µM (inactive)
GI50 [14]: > 100 µM (inactive)
GI50 [15]: > 100 µM (inactive)
GI50 [16]: > 100 µM (inactive)
GI50 [17]: > 100 µM (inactive)
GI50 [18]: > 100 µM (inactive)
GI50 [19]: > 100 µM (inactive)
GI50 [20]: > 100 µM (inactive)

COc1cccc(C(=O)O[C@H]2[C@@H]3[C@]4(OC(C)=O)CO[C@@H]4C[C@H](O)[C@@]3(C)C(=O)[C@H](OC(C)=O)C3=C(C)[C@@H](OC(=O)[C@H](O)[C@@H](NC(=O)OC(C)(C)C)c4ccco4)C[C@]2(O)C3(C)C)c1
GI50 [1]: < 0.00375 µM (active)
GI50 [2]: < 0.00375 µM (active)
GI50 [3]: < 0.00375 µM (active)
GI50 [4]: < 0.00375 µM (active)
GI50 [5]: < 0.00375 µM (active)
GI50 [6]: 0.36 µM (active)
GI50 [7]: < 0.00375 µM (active)
GI50 [8]: 0.147 µM (active)
GI50 [9]: < 0.00375 µM (active)
GI50 [10]: < 0.00375 µM (active)
GI50 [11]: 1.47 µM (inactive)
GI50 [12]: < 0.00375 µM (active)
GI50 [13]: < 0.00375 µM (active)
GI50 [14]: < 0.00375 µM (active)
GI50 [15]: < 0.00375 µM (active)
GI50 [16]: 0.00527 µM (active)
GI50 [17]: < 0.00375 µM (active)
GI50 [18]: < 0.00375 µM (active)
GI50 [19]: 3.82 µM (inactive)
GI50 [20]: 0.139 µM (active)

COC(=O)C1=C(O)C(C(=O)OC)[C@]2(O)[C@H](C(=O)OC)[C@H]1C[C@@H](c1ccc(Cl)cc1)[C@H]2C(=O)OC (stereo not given in full)
GI50 [1]: 7.73 µM (inactive)
GI50 [2]: 5.64 µM (inactive)
GI50 [3]: 5.89 µM (inactive)
GI50 [4]: 10 µM (inactive)
GI50 [5]: 1.79 µM (inactive)
GI50 [6]: 8.18 µM (inactive)
GI50 [7]: 13.6 µM (inactive)
GI50 [8]: 14.5 µM (inactive)
GI50 [9]: 4.65 µM (inactive)
GI50 [10]: 6.79 µM (inactive)
GI50 [11]: 6.56 µM (inactive)
GI50 [12]: 8.97 µM (inactive)
GI50 [13]: 16.5 µM (inactive)
GI50 [14]: 4.22 µM (inactive)
GI50 [15]: 7.29 µM (inactive)
GI50 [16]: 13 µM (inactive)
GI50 [17]: 14.5 µM (inactive)
GI50 [18]: 2.3 µM (inactive)
GI50 [19]: 9.06 µM (inactive)
GI50 [20]: 7.45 µM (inactive)

CC1(C)CC(=O)C(Cc2ccccc2)(Cc2ccccc2)C(=O)C1
GI50 [1]: > 100 µM (inactive)
GI50 [2]: > 100 µM (inactive)
GI50 [3]: > 100 µM (inactive)
GI50 [4]: > 100 µM (inactive)
GI50 [5]: > 100 µM (inactive)
GI50 [6]: > 100 µM (inactive)
GI50 [7]: 39.8 µM (inactive)
GI50 [8]: > 100 µM (inactive)
GI50 [9]: > 100 µM (inactive)
GI50 [10]: > 100 µM (inactive)
GI50 [11]: > 100 µM (inactive)
GI50 [12]: > 100 µM (inactive)
GI50 [13]: > 100 µM (inactive)
GI50 [14]: > 100 µM (inactive)
GI50 [15]: > 100 µM (inactive)
GI50 [16]: > 100 µM (inactive)
GI50 [17]: > 100 µM (inactive)
GI50 [18]: > 100 µM (inactive)
GI50 [19]: > 100 µM (inactive)
GI50 [20]: > 100 µM (inactive)

COc1cc(O)c2c(c1)OCC(Cc1ccc(O)cc1)C2=O (stereo not given)
GI50 [1]: 68.5 µM (inactive)
GI50 [2]: > 100 µM (inactive)
GI50 [3]: > 100 µM (inactive)
GI50 [4]: > 100 µM (inactive)
GI50 [5]: > 100 µM (inactive)
GI50 [6]: > 100 µM (inactive)
GI50 [7]: 74.3 µM (inactive)
GI50 [8]: > 100 µM (inactive)
GI50 [9]: > 100 µM (inactive)
GI50 [10]: 80.5 µM (inactive)
GI50 [11]: > 100 µM (inactive)
GI50 [12]: > 100 µM (inactive)
GI50 [13]: > 100 µM (inactive)
GI50 [14]: > 100 µM (inactive)
GI50 [15]: > 100 µM (inactive)
GI50 [16]: > 100 µM (inactive)
GI50 [17]: > 100 µM (inactive)
GI50 [18]: > 100 µM (inactive)
GI50 [19]: > 100 µM (inactive)
GI50 [20]: > 100 µM (inactive)

COc1cc2c(cc1O)[C@@H]1Cc3c(cc(OC)c(OC)c3Oc3cc4c(cc3OC)CCN(C)[C@@H]4Cc3ccc(O)cc3)[C@H](C2)N1C
GI50 [1]: > 60.3 µM (inactive)
GI50 [2]: > 100 µM (inactive)
GI50 [3]: 53 µM (inactive)
GI50 [4]: 19.4 µM (inactive)
GI50 [5]: 22.6 µM (inactive)
GI50 [6]: > 100 µM (inactive)
GI50 [7]: 20.6 µM (inactive)
GI50 [8]: > 100 µM (inactive)
GI50 [9]: 36.2 µM (inactive)
GI50 [10]: > 78.9 µM (inactive)
GI50 [11]: 17.1 µM (inactive)
GI50 [12]: > 84.9 µM (inactive)
GI50 [13]: 43.3 µM (inactive)
GI50 [14]: 23.5 µM (inactive)
GI50 [15]: 36.6 µM (inactive)
GI50 [16]: > 72.3 µM (inactive)
GI50 [17]: 82.2 µM (inactive)
GI50 [18]: 28.6 µM (inactive)
GI50 [19]: 18.6 µM (inactive)
GI50 [20]: > 83.2 µM (inactive)

CC1(C)OC(=O)C(Cc2ccccc2)(Cc2ccccc2)C(=O)O1
GI50 [1]: > 100 µM (inactive)
GI50 [2]: > 100 µM (inactive)
GI50 [3]: > 100 µM (inactive)
GI50 [4]: > 100 µM (inactive)
GI50 [5]: > 100 µM (inactive)
GI50 [6]: > 100 µM (inactive)
GI50 [7]: > 100 µM (inactive)
GI50 [8]: > 100 µM (inactive)
GI50 [9]: > 100 µM (inactive)
GI50 [10]: > 100 µM (inactive)
GI50 [11]: > 100 µM (inactive)
GI50 [12]: > 100 µM (inactive)
GI50 [13]: > 100 µM (inactive)
GI50 [14]: > 100 µM (inactive)
GI50 [15]: > 100 µM (inactive)
GI50 [16]: > 100 µM (inactive)
GI50 [17]: > 100 µM (inactive)
GI50 [18]: > 100 µM (inactive)
GI50 [19]: > 100 µM (inactive)
GI50 [20]: > 100 µM (inactive)

CN(C)CC1CCC/C(=C\c2ccc(N(C)C)cc2)C1=O (stereo not given)
GI50 [1]: 1.8 µM (inactive)
GI50 [2]: 17.9 µM (inactive)
GI50 [3]: 5.45 µM (inactive)
GI50 [4]: 2.58 µM (inactive)
GI50 [5]: 10.2 µM (inactive)
GI50 [6]: 18.2 µM (inactive)
GI50 [7]: 17 µM (inactive)
GI50 [8]: 13.9 µM (inactive)
GI50 [9]: 18.2 µM (inactive)
GI50 [10]: 1.78 µM (inactive)
GI50 [11]: 12.1 µM (inactive)
GI50 [12]: 10.4 µM (inactive)
GI50 [13]: 4.78 µM (inactive)
GI50 [14]: 15.3 µM (inactive)
GI50 [15]: 1.85 µM (inactive)
GI50 [16]: 1.97 µM (inactive)
GI50 [17]: 3.73 µM (inactive)
GI50 [18]: > 100 µM (inactive)
GI50 [19]: 5.64 µM (inactive)
GI50 [20]: 19.8 µM (inactive)

COC(=O)c1ccccc1C1CN=NC12Cc1cc(C)ccc1C2=O (stereo not given)
GI50 [1]: 84.1 µM (inactive)
GI50 [2]: > 100 µM (inactive)
GI50 [3]: > 100 µM (inactive)
GI50 [4]: > 100 µM (inactive)
GI50 [5]: > 100 µM (inactive)
GI50 [6]: > 100 µM (inactive)
GI50 [7]: 71 µM (inactive)
GI50 [8]: > 100 µM (inactive)
GI50 [9]: 94.4 µM (inactive)
GI50 [10]: > 100 µM (inactive)
GI50 [11]: > 100 µM (inactive)
GI50 [12]: 52.4 µM (inactive)
GI50 [13]: 21.5 µM (inactive)
GI50 [14]: > 100 µM (inactive)
GI50 [15]: > 100 µM (inactive)
GI50 [16]: 16.6 µM (inactive)
GI50 [17]: > 100 µM (inactive)
GI50 [18]: > 100 µM (inactive)
GI50 [19]: > 100 µM (inactive)
GI50 [20]: > 100 µM (inactive)

CN(c1ccccc1Cl)S(=O)(=O)c1ccccc1[N+](=O)[O-]
GI50 [1]: 48.8 µM (inactive)
GI50 [2]: 37.2 µM (inactive)
GI50 [3]: 56.8 µM (inactive)
GI50 [4]: 34.2 µM (inactive)
GI50 [5]: 96.6 µM (inactive)
GI50 [6]: 41.5 µM (inactive)
GI50 [7]: 40.6 µM (inactive)
GI50 [8]: 30.6 µM (inactive)
GI50 [9]: 24.7 µM (inactive)
GI50 [10]: 55.8 µM (inactive)
GI50 [11]: 79.6 µM (inactive)
GI50 [12]: 31.6 µM (inactive)
GI50 [13]: 37.2 µM (inactive)
GI50 [14]: 35.9 µM (inactive)
GI50 [15]: 78.9 µM (inactive)
GI50 [16]: 82 µM (inactive)
GI50 [17]: 70.1 µM (inactive)
GI50 [18]: 33.2 µM (inactive)
GI50 [19]: 39.6 µM (inactive)
GI50 [20]: > 10 µM (inactive)
